Calls of active or inactive are those of the source. No cut-off for these calls is given here.
Legend:
MGC-803 [1] = assay: Induction of cell cycle arrest in human MGC-803 cells assessed as accumulation of cells at G1 phase at 4 uM incubated for 36 hrs by PI staining based flow cytometry analysis (reference value: 45.8%); type: functional
MGC-803 [2] = assay: Induction of cell cycle arrest in human MGC-803 cells assessed as decrease in p-cdc2 level at 1 to 4 uM by Western blot analysis; type: functional, cell-based; details: dose 1-4 µM
MGC-803 [3] = assay: Inhibition of colony formation in human MGC-803 cells incubated for 24 hrs with fresh medium replacement for every two days measured for 11 days by crystal voilet staining based assay; type: functional, cell-based; details: dose 0.5-2 µM, time 11.0 day, DDE = dose-dependent effect
MGC-803 [4] = assay: Induction of cell cycle arrest in human MGC-803 cells assessed as accumulation of cells at G2/M phase at 1 uM incubated for 36 hrs by PI staining based flow cytometry analysis (reference value: 20.5%); type: functional
MGC-803 [5] = assay: Induction of DNA damage in human MGC-803 cells assessed as increase in p-ATM generation incubated for 48 hrs by Western blot analysis; type: functional, cell-based; details: DDE = dose-dependent effect
HGC-27 [6] = assay: Induction of cell cycle arrest in human HGC-27 cells assessed as decrease in p-cdc2 level at 1 to 4 uM by Western blot analysis; type: functional, cell-based; details: dose 1-4 µM
[7] = Toxicity in BALB/c mouse xenografted with human MGC-803 cells assessed as effect on body weight at 10 to 20 mg/kg, ip administered once every two days; type: organism-based; details: in vivo, dose 10-20 mg/kg
MGC-803 [8] = assay: Induction of apoptosis in human MGC-803 cells assessed as increase in bax/bcl-2 expression level at 1 to 4 uM incubated for 48 hrs by Western blot analysis; type: functional, cell-based; details: dose 1-4 µM
MGC-803 [9] = assay: Antiproliferative activity against human MGC-803 cells assessed as inhibition of cell growth incubated for 72 hrs by SRB assay; type: functional, cell-based; details: MGC-803, 72 h
[10] = Toxicity in BALB/c mouse xenografted with human MGC-803 cells assessed as effect on liver at 10 to 20 mg/kg, ip administered once every two days measured after 15 days by H and E staining based assay; type: organism-based; details: in vivo, 360 h, dose 10-20 mg/kg, time 15 day
HGC-27 [11] = assay: Induction of cell cycle arrest in human HGC-27 cells assessed as accumulation of cells at G1 phase at 1 uM incubated for 36 hrs by PI staining based flow cytometry analysis (reference value: 49.6%); type: functional
ECa-109 cell line = assay: Antiproliferative activity against human EC109 cells assessed as inhibition of cell growth by SRB assay; type: functional, cell-based
MGC-803 [12] = assay: Induction of cell cycle arrest in human MGC-803 cells assessed as accumulation of cells at G2/M phase at 2 uM incubated for 36 hrs by PI staining based flow cytometry analysis (reference value: 20.5%); type: functional
HGC-27 [13] = assay: Induction of mitochondrial membrane depolarization in human HGC-27 cells incubated for 48 hrs by flow cytometry analysis; type: functional, cell-based; details: dose 1-4 µM, DDE = dose-dependent effect
HGC-27 [14] = assay: Induction of cell cycle arrest in human HGC-27 cells assessed as accumulation of cells at S phase at 2 uM incubated for 36 hrs by PI staining based flow cytometry analysis (reference value: 8.87%); type: functional
[15] = Toxicity in BALB/c mouse xenografted with human MGC-803 cells assessed as effect on uric acid level at 10 to 20 mg/kg, ip administered once every two days; type: organism-based; details: in vivo, dose 10-20 mg/kg
MGC-803 [16] = assay: Induction of apoptosis in human MGC-803 cells assessed as increase in cleaved caspase 9 protein expression level at 1 to 4 uM incubated for 48 hrs by Western blot analysis; type: functional, cell-based; details: dose 1-4 µM
MGC-803 [17] = assay: Induction of cell cycle arrest in human MGC-803 cells assessed as decrease in p-cdc25c level at 1 to 4 uM by Western blot analysis; type: functional, cell-based; details: dose 1-4 µM
MGC-803 [18] = assay: Induction of apoptosis in human MGC-803 cells assessed as decrease in caspase 9 protein expression level at 1 to 4 uM incubated for 48 hrs by Western blot analysis; type: functional, cell-based; details: dose 1-4 µM
HGC-27 [19] = assay: Induction of DNA damage in human HGC-27 cells assessed as increase in gamma-H2AX generation incubated for 24 hrs by immunofluorescence analysis; type: functional, cell-based
MGC-803 [20] = assay: Induction of apoptosis in human MGC-803 cells assessed as decrease in caspase 7 protein expression level at 1 to 4 uM incubated for 48 hrs by Western blot analysis; type: functional, cell-based; details: dose 1-4 µM
MGC-803 [21] = assay: Induction of ROS generation in human MGC-803 cells at 1 to 4 uM incubated for 24 hrs by flow cytometry analysis; type: functional, cell-based; details: dose 1-4 µM
MGC-803 [22] = assay: Induction of cell cycle arrest in human MGC-803 cells assessed as accumulation of cells at S phase at 4 uM incubated for 36 hrs by PI staining based flow cytometry analysis (reference value: 20.5%); type: functional
MGC-803 [23] = assay: Antitumor activity against human MGC-803 cells xenografted with BALB/c mouse assessed as atrophied cells at 10 to 20 mg/kg, ip administered once every two days; type: functional, organism-based; details: dose 10-20 mg/kg
HGC-27 [24] = assay: Induction of DNA damage in human HGC-27 cells assessed as increase in p-ATM generation incubated for 48 hrs by Western blot analysis; type: functional, cell-based; details: DDE = dose-dependent effect
[25] = Antiproliferative activity against human L02 cells assessed as inhibition of cell growth incubated for 72 hrs by SRB assay; type: toxicity, cell-based
MGC-803 [26] = assay: Induction of cell cycle arrest in human MGC-803 cells assessed as accumulation of cells at G1 phase at 2 uM incubated for 36 hrs by PI staining based flow cytometry analysis (reference value: 45.8%); type: functional
[27] = Toxicity in BALB/c mouse xenografted with human MGC-803 cells assessed as effect on kidney at 10 to 20 mg/kg, ip administered once every two days measured after 15 days by H and E staining based assay; type: organism-based; details: in vivo, 360 h, dose 10-20 mg/kg, time 15 day
MGC-803 [28] = assay: Induction of apoptosis in human MGC-803 cells incubated for 48 hrs in presence of NAC by Annexin V-FITC and PI staining based flow cytometry analysis; type: functional
HGC-27 [29] = assay: Induction of cell cycle arrest in human HGC-27 cells assessed as accumulation of cells at S phase at 1 uM incubated for 36 hrs by PI staining based flow cytometry analysis (reference value: 8.87%); type: functional
HGC-27 [30] = assay: Antiproliferative activity against human HGC-27 cells assessed as inhibition of cell growth at 0.25 to 8 uM by SRB assay; type: functional, cell-based; details: dose 0.25-8 µM, time 24-72 hrs, TDE = time-dependent effect
[31] = Toxicity in BALB/c mouse xenografted with human MGC-803 cells assessed as effect on AST level at 10 to 20 mg/kg, ip administered once every two days; type: organism-based; details: in vivo, dose 10-20 mg/kg
HGC-27 [32] = assay: Activation of ROS/JNK signalling in human HGC-27 cells assessed as increase in p-MKK4 level by Western blot analysis; type: cell-based; details: filed as activator, dose 1-4 µM, DDE = dose-dependent effect
[33] = Toxicity in BALB/c mouse xenografted with human MGC-803 cells assessed as effect on heart at 10 to 20 mg/kg, ip administered once every two days measured after 15 days by H and E staining based assay; type: organism-based; details: in vivo, 360 h, dose 10-20 mg/kg, time 15 day
MGC-803 [34] = assay: Activation of ROS/JNK signalling in human MGC-803 cells assessed as increase in p-JNK level at 1 to 4 uM by Western blot analysis; type: cell-based; details: filed as activator, dose 1-4 µM

Cc1ccc(NC2=CC(=O)c3nc4n(c3C2=O)[C@H]2OC[C@@H](O)[C@H]2OC4)cc1C
Activity (MGC-803 [1]): 30.8% | Activity (MGC-803 [2]): Active | inhibition (MGC-803 [3]): Dde | Activity (MGC-803 [4]): 23.5% | Activity (MGC-803 [5]): Dde | Activity (HGC-27 [6]): Active | Activity [7]: Non-Toxic | Activity (MGC-803 [8]): Active | IC50 (MGC-803 [9]): 860 nM | Activity [10]: Non-Toxic | Activity (HGC-27 [11]): 49.3% | IC50 (ECa-109 cell line): 2820 nM | Activity (MGC-803 [12]): 24% | Activity (HGC-27 [13]): Dde | Activity (HGC-27 [14]): 10.7% | Activity [15]: Non-Toxic | Activity (MGC-803 [16]): Active | Activity (MGC-803 [17]): Active | Activity (MGC-803 [18]): Active | Activity (HGC-27 [19]): Active | Activity (MGC-803 [20]): Active | Activity (MGC-803 [21]): Active | Activity (MGC-803 [22]): 34.1% | Activity (MGC-803 [23]): Active | Activity (HGC-27 [24]): Dde | IC50 at 72 h [25]: 24.8 µM | Activity (MGC-803 [26]): 29.2% | Activity [27]: Non-Toxic | Activity (MGC-803 [28]): 9.29% | Activity (HGC-27 [29]): 8.8% | Activity (HGC-27 [30]): Tde | Activity [31]: Non-Toxic | Activity (HGC-27 [32]): Dde | Activity [33]: Non-Toxic | Activity (MGC-803 [34]): Active

Source: ChEMBL document CHEMBL5113408, “Design, synthesis and antitumour activity of novel 5(6)-amino-benzimidazolequinones containing a fused morpholine” (Eur J Med Chem, 2022)
